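Where inhibition never reached the appropriate level, the endpoint shown equals the highest concentration tested. Otherwise, values were interpolated linearly from a five-concentration, 48-hour dose response in 96-well plates. At the GI50, growth is halved. The concentration for full growth arrest is given as TGI.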
Assays:
Experiment in all cases: NCI anticancer screen, dose series, 48 h
OVCAR-8 ovarian = test system: OVCAR-8 ovarian
HOP-62 NSCLC = test system: HOP-62 NSCLC
M14 melanoma = test system: M14 melanoma
HS 578T breast = test system: HS 578T breast
SF-268 CNS = test system: SF-268 CNS
A549 NSCLC = test system: A549 NSCLC
SN12C renal = test system: SN12C renal
HOP-92 NSCLC = test system: HOP-92 NSCLC
HCT-116 colon = test system: HCT-116 colon
K-562 leukemia = test system: K-562 leukemia

| SMILES | TGI (OVCAR-8 ovarian) [µM] | TGI (HOP-62 NSCLC) [µM] | TGI (M14 melanoma) [µM] | TGI (HS 578T breast) [µM] | TGI (SF-268 CNS) [µM] | TGI (A549 NSCLC) [µM] | TGI (SN12C renal) [µM] | TGI (HOP-92 NSCLC) [µM] | TGI (HCT-116 colon) [µM] | TGI (K-562 leukemia) [µM] | GI50 (OVCAR-8 ovarian) [µM] | GI50 (HOP-62 NSCLC) [µM] | GI50 (M14 melanoma) [nM] | GI50 (HS 578T breast) [µM] | GI50 (SF-268 CNS) [µM] | GI50 (A549 NSCLC) [µM] | GI50 (HOP-92 NSCLC) [µM] | GI50 (HCT-116 colon) [µM] | GI50 (SN12C renal) [µM] | GI50 (K-562 leukemia) [µM] |
| --- | --- | --- | --- | --- | --- | --- | --- | --- | --- | --- | --- | --- | --- | --- | --- | --- | --- | --- | --- | --- |
| COc1ccc2ccccc2c1C1NC(=O)c2ccccc2N1 (stereo unspecified) | 31.8 | > 100 | 10.2 | > 31.3 | > 100 | > 51.8 | > 82.6 | > 80.6 | 13.8 |  |  |  |  |  |  |  |  |  |  |  |
| COC(=O)c1cccn1C(=O)n1cccc1 | > 100 | > 100 | > 100 |  | > 100 | > 100 | > 100 | > 100 | > 100 | > 100 |  |  |  |  |  |  |  |  |  |  |
| Oc1ccc2ccccc2c1N=Nc1ccsc1 | > 100 | > 100 | > 100 |  | > 100 | > 100 | > 100 | > 100 | > 100 | > 100 |  |  |  |  |  |  |  |  |  |  |
| Oc1ccc(C(c2ccc(O)cc2)c2ccc(O)cc2)cc1 | 32.6 |  |  | 56.1 | > 100 | > 100 | 43.9 | 60.5 | 35 |  |  |  |  |  |  |  |  |  |  |  |
| COC(=O)c1cc(O)c2cc3c(cc2c1-c1cc(OC)c(OC)c(OC)c1)OCO3 | > 100 | 18.4 | > 100 | 9.48 | > 100 | > 100 |  | 48.1 | > 100 |  | 11.3 | 1.79 | 893 | 1.43 | 2.94 | 0.762 | 4.19 | 0.604 |  |  |
| CCOC(=O)N1CCC(=O)C(CNC23CC4CC(CC(C4)C2)C3)C1 (stereo unspecified) | 44.5 | > 100 |  |  | > 100 | > 100 | > 100 | 41 |  | 31.2 |  |  |  |  |  |  |  |  |  |  |
| Cn1c2c(c3ccc([N+](=O)[O-])cc3c1=O)C(=O)c1ccccc1-2 | > 100 | > 100 |  | > 100 | > 100 | > 100 | > 100 | > 100 | > 100 |  | > 100 | > 100 |  | > 100 | > 100 | > 100 | > 100 | > 100 | > 100 |  |
| O=c1ncc(F)cn1C1OC(CO)C(O)C1O (stereo unspecified) | > 100 | > 100 | > 100 |  | > 77.4 | > 100 | > 60.4 | > 100 | > 100 | > 100 |  |  |  |  |  |  |  |  |  |  |
| O=Nc1ccc(NO)c2ccccc12 | 14.6 | 27.9 | 31.3 | > 100 | 27.8 | 38.7 | 11 |  | 12.7 | 44.6 | 3.24 | 14.6 | 16500 | 28.3 | 13.8 | 18.3 |  | 3.15 | 2.68 | 16.1 |
| COc1cc(C2SCC(=O)N2c2ncc(C)s2)cc(OC)c1OC (stereo unspecified) | > 50 |  | > 50 | > 50 | > 50 | > 50 | > 50 |  | > 50 | > 50 | 35.4 |  | 21000 | 44.6 | > 50 | 45.4 |  | 27.5 | 13.3 | 23.5 |
| O=C(CCN1CCN(c2ccccc2)CC1)N1CCc2c([nH]c3ccccc23)C1c1cccnc1 (stereo unspecified) | 30.4 | 40.4 | 31.2 |  |  | 29.7 | 29.6 | 37.7 | 28.1 | 45 |  |  |  |  |  |  |  |  |  |  |
| CC(C)(C)c1cc(-n2c(-c3ccc(Cl)cc3)nc3cc(C(=O)Nc4ccc(Cl)cc4)ccc32)n[nH]1 | > 100 | 36.9 |  | 93 | > 100 | > 100 | > 100 | 6.51 | > 100 |  | 9.03 | 14.1 |  | 7.91 | 9.03 | 3.71 | 1.65 | 3.84 | 5.82 |  |
| COC(=O)C(C(=O)C(=O)Nc1ccc([N+](=O)[O-])cc1[N+](=O)[O-])c1nc2ccc(Cl)cc2[nH]c1=O (stereo unspecified) | > 100 | > 100 | > 100 |  | > 100 | > 100 | > 100 | > 100 | > 100 | > 100 |  |  |  |  |  |  |  |  |  |  |
| CC(=O)C1=C(O)C=C2Oc3c(C(=O)/C=C/c4c(Cl)cccc4Cl)c(O)c(C)c(O)c3[C@]2(C)C1=O | 2.06 | 5.08 | 3.83 | 7.86 | 3.73 | 5.53 | 1.76 |  | 2.7 | 15 | 0.533 | 1.58 | 961 | 2.39 | 0.856 | 1.58 |  | 0.536 | 0.527 | 0.619 |
| C[C@@]12CCC[C@@](C)(C(=O)O)C1CC[C@]13C[C@@](O)(CO)[C@](O)(CCC12)C3 (stereo partly specified) | > 100 | > 100 | > 100 | > 100 | > 100 | > 100 | > 100 |  | > 100 | > 100 | > 100 | > 100 | > 100000 | > 100 | > 100 | > 100 |  | > 100 | > 100 | > 100 |
| NC(=O)/N=C1/CCC2C3CCCC2C13 | > 100 | > 100 | > 100 |  | > 100 | > 100 | > 100 | > 100 | > 100 | > 100 |  |  |  |  |  |  |  |  |  |  |
| CCC[CH2][Sn]1([CH2]CCC)[O]CC(CN(C)Cc2ccccc2)[O]1 (stereo unspecified) | 24.6 | 27.7 | 7.76 |  | 17.7 | 38.6 | 21.9 | 19.7 | 29.2 | 12.9 | 11.9 | 14.1 | 2450 |  | 5.89 | 19.6 | 3.94 | 15.7 | 10.1 | 2.76 |
| O=[P+](O)c1ccsc1 | > 100 | > 100 | > 100 |  | > 100 | > 100 | > 100 | > 100 | > 100 | > 100 |  |  |  |  |  |  |  |  |  |  |

Reference: PubChem BioAssay (NCI)
